Blank lines part the entries; values can stand above or below the compound they belong to.
Experiments:
Format in all cases: physicochemical
[1] = Dye stabilization effect under daylight exposure (Test Examples 6-91); parameters: key to Δ E: color difference ΔE in Lab vs. color before daylight exposure; key to Appearance (visual determination): ◯: no change; Δ: almost no change; x: change; details: photostabilizer 0.05 wt %, daylight exposure (80 MJ)
Experimental: For observation of the change of the appearance of each test sample (determination based on visual observation) and the measurement of color difference (ΔE) before and after daylight exposure (80 MJ), the test sample was prepared.
(§1) With a spectrophotometer, the color was measured on the Lab coordinate system, to calculate the color difference on the basis of the color before daylight exposure. More specifically, the color difference (ΔE) was calculated on the basis of the measured values (L1, a1, b1) before daylight exposure.

[2] = Stabilization effect on perfume under daylight exposure (Test Examples 92 to 181); parameters: key: ◯: no change; Δ: almost no change; x: change; details: daylight exposure (80 MJ)
Experimental: Each test sample was prepared for observation of the change of the odor of the test sample (determined by perfume coordinator) before and after daylight exposure (80 MJ).

[3] = Drug stabilization effect blended with sequestering agent (Test Examples 372 to 391); parameters: key to Appearance (visual determination): ◯: no change; Δ: almost no change; x: change; details: photostabilizer blend amount 0.03, daylight exposure (80 MJ)
Experimental: Then, the photostabilization effect of the pyridazine derivative in combination with sequestering agents on each drug and the change of the appearance of each composition were examined, by using the following formulation for assessment.
(§2) For observation of the change of the appearance of each test sample (determination based on visual observation) and the measurement of the remaining ratio by liquid chromatography before and after daylight exposure (80 MJ), the test sample was prepared.

[4] = Dye stabilization effect in blend with sequestering agents (Test Examples 212 to 275); details: daylight exposure (80 MJ)
Experimental: Each test sample was prepared for observation of the change of the appearance of each test sample (determined visually) and measurement of the color difference (ΔE) before and after daylight exposure (80 MJ).
as §1

[5] = Drug stabilization effect under daylight exposure (Test Examples 182 to 211); parameters: key to Appearance (visual determination): ◯: no change; Δ: almost no change; x: change; details: photostabilizer 0.05 wt %, daylight exposure (80 MJ); for Remaining ratio (%): liquid chromatography
Experimental: as §2

[6] = dye Blue 1 (Brilliant Blue FCF) 0.0001 wt %
[7] = dye Green 3 (Fast Green FCF) 0.001 wt %
[8] = dye Red 227 (Acid Fuchsine D) 0.0001 wt %
[9] = dye Yellow 5 (Sunset Yellow FCF) 0.001 wt %
[10] = dyes Red 213 (Rhodamine B) 0.00001 + Blue 1 (Brilliant Blue FCF) 0.00001 wt %
[11] = dyes Red 227 (Acid Fuchsine D) 0.0001 + Yellow 5 (Sunset Yellow FCF) 0.0001 wt %
[12] = drug dl-α-tocopherol 2-L-ascorbic acid phosphate diester potassium salt 0.01 wt %
[13] = dyes Red 401 (Violanin R) 0.0001 + Blue 1 (Brilliant Blue FCF) 0.00001 wt %
[14] = dyes Yellow 203 (Quinoline Yellow WS) 0.0001 + Yellow 5 (Sunset Yellow FCF) 0.0001 wt %
[15] = drug dibutylhydroxytoluene 0.01 wt %

- Appearance (visual determination) ([3]; drug dl-α-tocopherol 2-L-ascorbic acid phosphate diester potassium salt 0.01, no sequestering agent): Δ
- Appearance (visual determination) ([3]; drug dl-α-tocopherol 2-L-ascorbic acid phosphate diester potassium salt 0.01, with ethylenediaminehydroxyethyl Triacetate trisodium 0.03): ◯
- Δ E ([4]; dyes Red 106 (Acid Red) 0.00001 + Yellow 203 (Quinoline Yellow WS) 0.0001, no sequestering agent, photostabilizer blend amount 0.01): 1.08
- Δ E ([4]; dyes Red 106 (Acid Red) 0.00001 + Yellow 203 (Quinoline Yellow WS) 0.0001, with ethylenediaminehydroxyethyl trisodium triacetate 0.02, photostabilizer blend amount 0.01): 0.72
- Remaining ratio (%) [5, 12]: 98.7%
- Remaining ratio (%) ([5]; drug salicylic acid 0.1 wt %): 98.5%
SMILES: Oc1cc(N2CCCCC2)cnn1 [3-Hydroxy-5-piperidinopyridazine, 3-hydroxy-5-piperidinopyridazine]
- Appearance (visual determination) [1, 6]: ◯
- Δ E [1, 6]: 1.28
- Appearance (visual determination) [1, 7]: ◯
- Δ E [1, 7]: 0.45
- Appearance (visual determination) [1, 8]: ◯
- Δ E [1, 8]: 0.52
- Appearance (visual determination) [1, 9]: ◯
- Δ E [1, 9]: 0.53
- Appearance (visual determination) [1, 10]: ◯
- Δ E [1, 10]: 1.01
- Appearance (visual determination) [1, 11]: ◯
- Δ E [1, 11]: 0.68
- odor determination ([2]; base perfume Rose, photostabilizer 0.05 wt %): ◯
- odor determination ([2]; base perfume Woody, photostabilizer 0.1 wt %): ◯
- odor determination ([2]; natural perfume Lavender oil, photostabilizer 0.1 wt %): ◯
- odor determination ([2]; natural perfume Rose oil, photostabilizer 0.05 wt %): ◯
- odor determination ([2]; synthetic perfume Citral, photostabilizer 0.1 wt %): ◯
- odor determination ([2]; synthetic perfume Linalyl acetate, photostabilizer 0.1 wt %): ◯
- Δ E ([4]; dye Blue 1 (Brilliant Blue FCF) 0.001, photostabilizer 0.02, no sequestering agent): 1.74
- Δ E ([4]; dye Blue 1 (Brilliant Blue FCF) 0.001, photostabilizer 0.02, with ethylenediaminehydroxyethyl trisodium triacetate 0.05): 0.54
- Δ E ([4]; dye Blue 1 (Brilliant Blue FCF) 0.001, photostabilizer 0.02, with ethylenediaminetetraacetate trisodium 0.05): 0.78
- Δ E ([4]; dye Blue 1 (Brilliant Blue FCF) 0.001, photostabilizer 0.02, with sodium metaphosphate 0.05): 0.88
- Appearance (visual determination) [5, 12]: ◯
- Appearance (visual determination) ([5]; drug salicylic acid 0.1 wt %): ◯

- Appearance (visual determination) ([3]; drug L-ascorbic acid 2-glucoside 2.0, no sequestering agent): ◯
- Appearance (visual determination) ([3]; drug L-ascorbic acid 2-glucoside 2.0, with sodium metaphosphate 0.03): ◯
- Δ E ([4]; dyes Red 106 (Acid Red) 0.00001 + Yellow 5 (Sunset Yellow FCF) 0.0001, no sequestering agent, photostabilizer blend amount 0.01): 1.38
- Δ E ([4]; dyes Red 106 (Acid Red) 0.00001 + Yellow 5 (Sunset Yellow FCF) 0.0001, with ethylenediaminetetraacetate trisodium 0.02, photostabilizer blend amount 0.01): 0.92
- Remaining ratio (%) [5, 15]: 98.0%
SMILES: Oc1ccc(N2CCOCC2)nn1 [3-Hydroxy-6-morpholinopyridazine, 6-Morpholino-3-hydroxypyridazine]
- Appearance (visual determination) [1, 6]: ◯
- Δ E [1, 6]: 1.32
- Appearance (visual determination) [1, 7]: ◯
- Δ E [1, 7]: 0.43
- Appearance (visual determination) [1, 8]: ◯
- Δ E [1, 8]: 0.54
- Appearance (visual determination) [1, 9]: ◯
- Δ E [1, 9]: 0.53
- Appearance (visual determination) [1, 13]: ◯
- Δ E [1, 13]: 0.52
- Appearance (visual determination) [1, 14]: ◯
- Δ E [1, 14]: 0.44
- odor determination ([2]; natural perfume Nelori oil, photostabilizer 0.1 wt %): ◯
- odor determination ([2]; natural perfume Ylang ylang oil, photostabilizer 0.2 wt %): ◯
- odor determination ([2]; synthetic perfume Limonene oil, photostabilizer 0.05 wt %): ◯
- odor determination ([2]; synthetic perfume Linalool, photostabilizer 0.05 wt %): ◯
- Δ E ([4]; dye Green 3 (Fast Green FCF) 0.001, photostabilizer 0.02, no sequestering agent): 0.75
- Δ E ([4]; dye Green 3 (Fast Green FCF) 0.001, photostabilizer 0.02, with ethylenediaminetetraacetate trisodium 0.1): 0.32
- Δ E ([4]; dye Green 3 (Fast Green FCF) 0.001, photostabilizer 0.02, with sodium metaphosphate 0.1): 0.36
- Δ E ([4]; dye Green 3 (Fast Green FCF) 0.001, photostabilizer 0.02, with sodium polyphosphate 0.1): 0.52
- Appearance (visual determination) [5, 15]: ◯

From patent US6676932B2, “Ultraviolet absorbent, photostabilizer, ultraviolet ray-absorbing composition, photostabilized composition and external preparation for skin” (Shiseido Co., Ltd., priority 2001, dated 2004)
